Laboratory results as given in article PMC9841524, “Structure-Based Rational Design of Small α-Helical Peptides with Broad-Spectrum Activity against Multidrug-Resistant Pathogens” (Journal of Medicinal Chemistry, 2022).
Where two headings read alike, the source gives them in different places. Where no end group is shown, it is not given here.

Tests used:
[1] = test system: K. pneumoniae (ATCCBAA-1705); experiment: MIC, standard microtiter dilution (CLSI); type: cell-based, Klebsiella pneumoniae; settings: broth microdilution (CLSI), CAMHB, 37 °C, 24 h
Protocol: (§1) Description of the characteristics and growth conditions of various bacterial strains used in the study are provided in the Supporting Information (Table S3). Antibacterial susceptibility testing was carried out using a standard microtiter dilution method recommended by the clinical and laboratory standard institute (CLSI) and measured as a minimum inhibitory concentration (MIC), the lowest peptide concentration that inhibited bacterial growth. Briefly, the overnight grown cultures in the recommended broth for each bacterial strain were diluted in cation-adjusted Mueller Hinton Broth (CAMHB) to give an inoculum of 10^6 colony-forming units (CFU)/mL. A 2-fold serially diluted test peptide solution (100 μL) was added to the microtiter plates. After adding bacterial suspension (100 μL), the plates were incubated at 37 °C for 24 h, and the MICs were determined. The same protocol was used to determine the MICs in the presence of salts and serum except using the media supplemented with various cationic salts (150 mM NaCl, 4.5 mM KCl, 6 mM NH4Cl, 1 mM MgCl2, and 2 mM CaCl2) or 25% FBS. The data was acquired from three independent assays performed in triplicate.
(§2) The bacterial strains employed in this study were obtained from the American Type Culture Collection (ATCC). Each strain was propagated as recommended by the ATCC, and each strain was stored as a frozen glycerol stock at -80°C. A bacterial colony was grown on the appropriate agar as indicated in Table S1 and was used to inoculate the appropriate broth. The culture was incubated at the appropriate conditions, as mentioned in Table S1. Following the incubation, the culture was diluted to an optical density 625 nm (OD625) of 0.1 in cation adjusted Mueller Hinton Broth (CAMHB), which is equivalent to 1 × 10^8 CFU/mL. The culture was further diluted to 1 × 10^6 CFU/mL, which was used to conduct the MIC determination assay. For the S. pneumoniae strains, CAMHB + 2.5% lysed horse blood was required for the assay. The strains with their […]
(§3) Table S3. Description of the characteristics and growth conditions of various bacterial strains

[2] = test system: human red blood cells (hRBCs); experiment: Hemolytic assay; type: cell-based; settings: 2 h, 37 °C
Protocol: The hemolytic activity of all peptides (1a–8d) was determined using hRBC. The assay was conducted by adding 75 μL of 2-fold serially diluted peptides to 75 μL of hRBC suspension (4% in PBS). The plates were incubated for 2 h at 37 °C without agitation. In order to determine the hemolysis at each tested concentration of peptides, the plate was centrifuged, and 100 μL of the supernatant was transferred to another 96-well plate to determine hemoglobin release spectrophotometrically at 567 nm. Percent hemolysis was calculated by the following formula [drawing 1] where A represents the absorbance of the peptide sample at 567 nm and A0 and At represent zero percent and 100% hemolysis determined in phosphate buffer saline and 1% Triton X-100, respectively.

S. aureus (ATCC 29213) = experiment: MIC, standard microtiter dilution (CLSI); type: cell-based; settings: broth microdilution (CLSI), CAMHB, 37 °C, 24 h
Protocol: as §1, §2, §3

[3] = CD spectroscopy, helicity; type: physicochemical; design: key to Δ[θ]222 induced by TFE / Δ[θ]222 induced by Liposomes: mean residue molar ellipticity, mdeg cm2/(dmol × res); settings: for [θ]222 mean residue molar ellipticity, TFE / [θ]222 mean residue molar ellipticity, Liposomes / [θ]222 mean residue molar ellipticity, PBS: CD at 222 nm, 25 °C; for [θ]222 mean residue molar ellipticity, TFE: aqueous buffer containing 50% TFE; for [θ]222 mean residue molar ellipticity, Liposomes / Δ[θ]222 induced by Liposomes: bacterial membrane mimicking liposomes; for [θ]222 mean residue molar ellipticity, Liposomes: peptide:lipid molar ratio 1:1.05; for [θ]222 mean residue molar ellipticity, PBS: phosphate buffer saline pH 7.0; for Δ[θ]222 induced by TFE / Δ[θ]222 induced by Liposomes: difference to PBS; for Δ[θ]222 induced by TFE: 50% TFE; for % of helicity induced by TFE: increase in molar ellipticity at 222 nm in the presence of 50% TFE; for % of helicity induced by Liposomes: increase in molar ellipticity at 222 nm in the presence of liposomes;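 as to % of helicity induced by Liposomes: share of the total helicity with liposomes gained over the same peptide in PBS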;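 as to % of helicity induced by TFE: share of the total helicity in TFE gained over the same peptide in PBS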
Protocol: The CD spectra of peptides were recorded using a Jasco J-1500 CD spectrophotometer (Jasco, Easton, MD) at 25 °C with a 1 mm path length cell. Wavelengths from 190 to 260 nm were scanned with 1.0 nm step resolution, 100 nm/min speed, 0.4 s response time, and 1 nm bandwidth. CD spectra of the peptides were collected and averaged over three scans in 10 mM sodium phosphate buffer (pH 7.2), helix-inducing solvent 50% TFE (v/v), and bacterial mimic liposomes (75 μM lipid). Spectra were corrected by subtracting a baseline spectrum containing only buffer or 50% TFE or liposomes. The mean residue molar ellipticity was calculated using the formula [drawing 3] where Ab222 is the absorbance observed at 222 nm, MRW is the mean residue molecular weight, C is the concentration in mg/mL, and L is the path length.
Table S1. RP-HPLC retention times and CD spectroscopy analysis of the selected peptides Peptide tR (min)a [θ]222b Δ[θ]222 induced by % of helicity inducedc by PBS TFE Liposomes TFE Liposomes TFE Liposomes […]
atR (min) denotes the retention time at 25°C by RP-HPLC. bThe mean residue molar ellipticity [θ] 222 (mdeg cm2/(dmol × res)) at 222 nm was measured at 25 °C in phosphate buffer saline (PBS, pH 7.0), in aqueous buﬀer containing 50% TFE (TFE), or in presence of bacterial membrane mimicking liposomes (peptide:lipid […]
c% helix induced is the increase in the molar ellipticity at 222 nm (in percentage) of a peptide in the presence of TFE or liposomes.

[4] = test system: P. aeruginosa (ATCC 27883); experiment: MIC, standard microtiter dilution (CLSI); type: cell-based, Pseudomonas aeruginosa; settings: broth microdilution (CLSI), CAMHB, 37 °C, 24 h
Protocol: as §1, §2, §3

MRSA (ATCC BAA-1556) = settings: broth microdilution (CLSI), CAMHB, 37 °C, 24 h
Protocol: as §1, §2, §3

E. coli (ATCC 25922) = settings: broth microdilution (CLSI), CAMHB, 37 °C, 24 h
Protocol: as §1, §2, §3

[5] = 10^6 CFU/mL, highest MIC of three independent experiments in triplicate
[6] = hRBC suspension 4% in PBS, hemoglobin release at 567 nm, 1% Triton X-100 = 100%
[7] = value in parentheses (μM), hRBC 4% in PBS, 567 nm

Substance	MIC, K. pneumoniae (ATCCBAA-1705) [1, 5] [µg/mL]	MIC, K. pneumoniae (ATCCBAA-1705) ([1]; value in parentheses (μM)) [µM]	HC50 (concentration at which 50% hemolysis was observed) [2, 6] [µg/mL]	HC50 (concentration at which 50% hemolysis was observed) [2, 7] [µM]	MIC, S. aureus (ATCC 29213) (S. aureus (ATCC 29213); [5]) [µg/mL]	MIC, S. aureus (ATCC 29213) (S. aureus (ATCC 29213); value in parentheses (μM)) [µM]	[θ]222 mean residue molar ellipticity, TFE [3]	[θ]222 mean residue molar ellipticity, Liposomes [3]	[θ]222 mean residue molar ellipticity, PBS [3]	Δ[θ]222 induced by TFE [3]	Δ[θ]222 induced by Liposomes [3]	% of helicity induced by TFE [3] [%]	% of helicity induced by Liposomes [3] [%]	MIC, P. aeruginosa (ATCC 27883) [4, 5] [µg/mL]	MIC, P. aeruginosa (ATCC 27883) ([4]; value in parentheses (μM)) [µM]	MIC, MRSA (ATCC BAA-1556) (MRSA (ATCC BAA-1556); [5]) [µg/mL]	MIC, MRSA (ATCC BAA-1556) (MRSA (ATCC BAA-1556); value in parentheses (μM)) [µM]	MIC, E. coli (ATCC 25922) (E. coli (ATCC 25922); [5]) [µg/mL]	MIC, E. coli (ATCC 25922) (E. coli (ATCC 25922); value in parentheses (μM)) [µM]
RWLRRWLRWWR-NH2 [5d]	50	28.26	130	73.48	25	14.13	-10148 mdeg cm2/(dmol × res)	-5800 mdeg cm2/(dmol × res)	-4099 mdeg cm2/(dmol × res)	-6048	-1700	59.60	29.31	50	28.26	25	14.13	50	28.26
RWWRRWAR-NH2 [2a]	> 100	> 78.65	> 500	> 393.23	> 100	> 78.65	-6217 mdeg cm2/(dmol × res)	-4556 mdeg cm2/(dmol × res)	-4051 mdeg cm2/(dmol × res)	-2165	-505	34.83	11.08	> 100	> 78.65	> 100	> 78.65	> 100	> 78.65
RAWRAWWRRA-NH2 [4f]	> 100	> 70.74	> 500	> 353.69	> 100	> 70.74	-7441 mdeg cm2/(dmol × res)	-4470 mdeg cm2/(dmol × res)	-3665 mdeg cm2/(dmol × res)	-3775	-805	50.73	18.01	> 100	> 70.74	> 100	> 70.74	> 100	> 70.74
Ac-RWLRRWLRWWR-NH2 [5f]	50	27.61	65	35.89	12.5	6.90								25	13.80	12.5	6.90	50	27.61
H-RAWRRAWRAW-NH2 [4a]	> 100	> 70.74	> 500	> 353.69	> 100	> 70.74								> 100	> 70.74	> 100	> 70.74	> 100	> 70.74
H-RAWRRWARAW-NH2 [4d]	> 100	> 70.74	> 500	> 353.69	> 100	> 70.74								> 100	> 70.74	> 100	> 70.74	> 100	> 70.74
H-AAWRRWWRRA-NH2 [4h]	> 100	> 70.74	> 500	> 353.69	> 100	> 70.74								> 100	> 70.74	> 100	> 70.74	> 100	> 70.74
RWARRWWRA-NH2 [3c]	> 100	> 74.48	> 500	> 372.42	> 100	> 74.48								> 100	> 74.48	> 100	> 74.48	> 100	> 74.48
